Reference: patent EP2062893A1, “Fused imidazoles for cancer treatment” (Bayer Schering Pharma AG, priority 2007, dated 2009)

Legend:
Type in all cases: cell-based
[1] = test system: phosphorylated Akt protein; assay: Cellular PI3K / Akt pathway assay (phospho-Akt Ser473 sandwich ELISA); settings: Homo sapiens; MCF7 cells, ß-Heregulin (20ng/ml) stimulation, 48h incubation
Procedure: In order to study the cellular activity of the compounds according to the present invention, an Enzyme Linked Immunosorbent Assay (ELISA)-based assay has been used specific phospho-AKT. The assay is based on a Sandwich ELISA kit (PathScan™ Phospho-Akt1 (Ser473); Cell Signaling, USA; #7160). The ELISA Kit detects endogenous levels of phosphorylated Akt protein. A phospho-Akt (Ser473) antibody (Cell Signaling, USA; #9271) has been coated onto the microwells. After incubation with cell lysates, the coated antibody captures the phosphorylated Akt protein. Following extensive washing, Akt1 monoclonal antibody (Cell Signaling, USA; #2967) is added to detect the captured phospho-Akt1 protein. HRP-linked anti-mouse antibody (HRP: horseradish peroxidase; Cell Signaling, USA; #7076) is then used to recognize the bound detection antibody. HRP substrate (= 3,3',5,5'-tetramethylbenzidine (TMB); Cell Signaling, USA; #7160) is added to develop colour. The magnitude of optical density for this developed color is proportional to the quantity of phosphorylated Akt protein. MCF7 cells (ATCC HTB-22) are seeded into 96 well fate bottom plates at a density of 10000 cells/well. 24 hours after seeding, the cells are serum starved using low-serum medium (IMEM media including 0,1% charcoal treated FCS (FCS: fetal calf serum)). […] To stimulate Akt phosphorylation, ß-Heregulin (20ng/ml ß-HRG) is added in parallel to the compounds. Wells containing unstimulated control cells (no ß-Heregulin stimulation) are incubated with or without the diluted compound. Wells containing untreated control cells (no compound) are filled with medium containing 0.5% v:v DMSO and are or are not stimulated with ß-Heregulin. Cells are harvested and lysed with brief sonification in 1x cell lysis buffer (20mM Tris (pH7.5), 150 mM NaCl, 1 mM ethylene diaminetetraacetate (EDTA), 1 mM ethylene glycolbis(2-aminoethyl)-N,N,N',N'-tetraacetic acid (EGTA), 1vol% Triton X-100, 2.5mM sodium pyrophosphate, 1 mM β-glycerolphosphate, 1 mM Na3VO4, 1µg/ml leupeptin). The lysate is centrifuged for 10 min. at 4°C and the supernatant is transferred to a new tube. 100 µl of sample diluent (0.1vol% Tween-20, 0.1vol% sodium azide in phosphate buffered saline (PBS)) are added to a microcentrifuge tube and 100 µl of cell lysate are transferred into the tube and vortexed. 100 µl of each diluted cell lysate are added to the appropriate ELISA well, and incubated overnight at 4°C. The plates are washed 4 times with 1x wash buffer (1vol% tween-20, 0.33vol% thymol, in PBS). Next 100 µl of detection antibody (Akt1 (2H10) monoclonal detection antibody; Cell Signaling, USA; #2967) are added to each well and incubation continued for 1h at 37°C. The washing procedure is repeated between each step. 100µl of secondary antibody (anti-mouse IgG HRP-linked antibody; Cell Signaling, USA; #7076) are added to each well and incubated for 30 min. at 37°C. Than, 100µl of TMB substrate (0.05% 3,3',5,5' tetramethylbenzidine, 0.1 % hydrogen peroxide, complex polypeptides in a buffered solution; Cell Signaling, USA; #7160) are added to each well and incubated for 30 min. at 25°C. Finally 100 µl of STOP solution (0.05vol% α and β unsaturated carbonyl compound) are added to each well and the plate are shaked gently. The absorbance is measured at λ =450 nm (Wallac Victor2; Perkin Elmer, USA) within 30 min. after adding the STOP solution. The analysis of the data is performed using a statistical program (Excel; Microsoft, USA). Preferred compounds show an inhibitory activity towards Akt phosphorylation below 10µM.

phosphorylated GSK3 = assay: Cellular pGSK3 assay (phospho-GSK3 Ser9 sandwich ELISA); settings: Homo sapiens; MCF7 cells, 48h incubation, IC50 of pGSK3 inhibition
Procedure: In order to study the cellular activity of the compounds according to the present invention, an ELISA-based assay has been established for the phosphorylated protein glycogen synthetase kinase 3 (GSK3). The assay is based on a solid phase sandwich ELISA that detects endogenous levels of phosphorylated GSK3 using a phospho-GSK3 (Ser9) specific antibody (BioSource International, Inc.; Catalog #KHO0461). After incubation with cell lysates, the coated antibody captures the phosphorylated GSK3 protein. Following extensive washing, GSK3 polyclonal antibody is added to detect the captured phospho-GSK3 protein. Secondary antibody (anti-rabbit IgG-HRP) is then used to recognize the bound detection antibody. After the second incubation and washing to remove all the excess anti-rabbit IgG-HRP, a substrate solution is added, which is acted upon by the bound enzyme to produce color. The intensity of this colored product is directly proportional to the concentration of GSK-3β [pS9] present in the original specimen. MCF7 cells (ATCC HTB-22) were seeded into 96 well fate bottom plates at a density of 10000 cells/well. After 24 h 1 µl each of the compound dilutions (test compounds were dissolved as 10 mM solutions in dimethylsulfoxide (DMSO) and subsequently diluted) were added into each well of the 96 well plates and incubated for 48h at 37°C in a humidified athmosphere containing 5% CO2. Cells were harvested and lysed in cell extraction buffer (10 mM Tris, pH 7.4, 100 mM NaCl, 1 mM EDTA, 1 mM EGTA, 1 mM NaF, 20 mM Na4P2O7, 2 mM Na3VO4, 1% Triton X-100, 10vol% glycerol, 0.1vol% SDS, 0.5vol% deoxycholate, 1 mM phenylmethylsulfonylfluorid (PMSF)). The lysate were centrifuged for 10 min. at 4°C and the supernatant were transferred to a new tube. 50 µl of sample diluent (standard diluent buffer, Biosource) were added and 100 µl of cell lysate transferred into the tube and vortexed. 100 µl of each diluted cell lysate were added to the appropriate ELISA well plate and incubated for 3h at room temperature. The plates were washed 4 times with 1x wash buffer (Biosource). 50 µl of detection antibody (GSK3 (Ser9) detection antibody; BioSource) were added to each well and incubated for 30 min. at room temperature. The washing procedure was repeated between each step. 100µl of HRP-linked secondary antibody (anti-mouse IgG HRP-linked antibody) were added to each well and incubated for 30 min. at room temperature. 100µl of TMB substrate (0.05vol% 3,3',5,5' tetramethylbenzidine, 0.1vol% hydrogen peroxide, complex polypeptides in a buffered solution; Biosource) were added to each well and incubated for 30 min. at room temperature. Finally 100 µl of Stop solution (0.05vol% α and β unsaturated carbonyl compound) were added to each well and the plate were shaked gently for a few seconds. The absorbance was measured at λ = 450 nm (Wallac Victor2; Perkin Elmer, USA) within 30 min. after adding the stop solution. The analysis of the data was performed using a statistical program (Excel; Microsoft, USA) and the IC50 of pGSK3 inhibition was determined.

OvCAR3 cells = assay: Cellular proliferation / Cytotoxicity assay (Alamar Blue / Resazurin cell viability); settings: Homo sapiens, OVCAR-3, 48h incubation, read-out: Anti-proliferative / Cytotoxic activity (OvCAR3 cells)
Procedure: Wells containing untreated control cells were filled with 200 µl DMEM (Dulbecco's Modified Eagle Medium) containing 0.5vol% v:v DMSO. The cells are then incubated with the substances for 48h at 37°C in a humidified atmosphere containing 5vol% CO2. To determine the viability of the cells, 20 µl of a Resazurin solution (90mg / I) are added. […] Viabilities are expressed as % values.

| IC50 [1] [µM] | IC50 (phosphorylated GSK3) [µM] | SMILES | IC50 (OvCAR3 cells) [µM] |
| --- | --- | --- | --- |
| < 1 | 1 to 10 | Clc1ccc2nc(-c3ccc(CN4CCC(c5nnc(-c6ccccn6)[nH]5)CC4)cc3)c(-c3ccccc3)n2c1 [Example 7, 6-chloro-3-phenyl-2-(4-{[4-(5-pyridin-2-yl-4H-1,2,4-triazol-3-yl)piperidin-1-yl]methyl}phenyl)imidazo[1,2-a]pyridine] | < 10 |
| < 1 | 1 to 10 | Cc1cccn2c(-c3ccccc3)c(-c3ccc(CN4CCC(c5n[nH]c(-c6ccccn6)n5)CC4)cc3)nc12 [Example 8, 8-methyl-3-phenyl-2-(4-{[4-(5-pyridin-2-yl-1,2,4-triazol-3-yl)piperidin-1-yl]methyl}phenyl)imidazo[1,2-a]pyridine] | < 10 |
| < 1 | < 1 | Brc1cnc2nc(-c3ccc(CN4CCC(c5n[nH]c(-c6ccccn6)n5)CC4)cc3)c(-c3ccccc3)n2c1 [Example 12, 6-bromo-3-phenyl-2-(4-{[4-(5-pyridin-2-yl-1,2,4-triazol-3-yl)piperidin-1-yl]methyl}phenyl)imidazo[1,2-a]pyrimidine] | < 10 |
| < 1 | 1 to 10 | COc1cccn2c(-c3ccccc3)c(-c3ccc(CN4CCC(c5n[nH]c(-c6ccccn6)n5)CC4)cc3)nc12 [Example 13, 8-methoxy-3-phenyl-2-(4-{[4-(5-pyridin-2-yl-1,2,4-triazol-3-yl)piperidin-1-yl]methyl}phenyl)imidazo[1,2-a]pyridine] | < 10 |
| < 1 | 1 to 10 | Fc1cccc(-c2c(-c3ccc(CN4CCC(c5n[nH]c(-c6ccccn6)n5)CC4)cc3)nc3ccccn23)c1 [Example 14, 3-(3-fluorophenyl)-2-(4-{[4-(5-pyridin-2-yl-1,2,4-triazol-3-yl)piperidin-1-yl]methyl}phenyl)imidazo[1,2-a]pyridine] | < 10 |
| < 1 | 1 to 10 | c1ccc(-c2nc(C3CCN(Cc4ccc(-c5nc6ccccn6c5-c5cccs5)cc4)CC3)n[nH]2)nc1 [Example 17, 2-(4-{[4-(5-pyridin-2-yl-1,2,4-triazol-3-yl)piperidin-1-yl]methyl}phenyl)-3-(2-thienyl)imidazo[1,2-a]pyridine] | < 10 |

Second part, the compound before the results:

| SMILES | IC50 [1] [µM] | IC50 (phosphorylated GSK3) [µM] | IC50 (OvCAR3 cells) [µM] |
| --- | --- | --- | --- |
| Fc1ccc(-c2c(-c3ccc(CN4CCC(c5n[nH]c(-c6ccccn6)n5)CC4)cc3)nc3ccccn23)cc1 [Example 9, 3-(4-fluorophenyl)-2-(4-{[4-(5-pyridin-2-yl-1,2,4-triazol-3-yl)piperidin-1-yl]methyl}phenyl)imidazo[1,2-a]pyridine] | 1 to 10 | 1 to 10 | > 10 |
| c1ccc(-c2c(-c3ccc(CN4CCC(c5n[nH]c(-c6ccccn6)n5)CC4)cc3)nc3sccn23)cc1 [Example 10, 5-phenyl-6-(4-{[4-(5-pyridin-2-yl-1,2,4-triazol-3-yl)piperidin-1-yl]methyl}phenyl)imidazo[2,1-b][1,3]thiazole] | < 1 | < 1 | < 10 |
| c1ccc(-c2c(-c3ccc(CN4CCC(c5n[nH]c(-c6ccccn6)n5)CC4)cc3)nc3scnn23)cc1 [Example 11, 5-phenyl-6-(4-{[4-(5-pyridin-2-yl-1,2,4-triazol-3-yl)piperidin-1-yl]methyl}phenyl)imidazo[2,1-b][1,3,4]thiadiazole] | < 1 | 1 to 10 | < 10 |
| COc1ccc(-c2c(-c3ccc(CN4CCC(c5n[nH]c(-c6ccccn6)n5)CC4)cc3)nc3ccccn23)cc1 [Example 15, 3-(4-methoxyphenyl)-2-(4-{[4-(5-pyridin-2-yl-1,2,4-triazol-3-yl)piperidin-1-yl]methyl}phenyl)imidazo[1,2-a]pyridine] | > 10 | 1 to 10 | > 10 |
| c1ccc(-c2nc(C3CCN(Cc4ccc(-c5nc6ccccn6c5-c5ccncc5)cc4)CC3)n[nH]2)nc1 [Example 16, 3-pyridin-4-yl-2-(4-{[4-(5-pyridin-2-yl-1,2,4-triazol-3-yl)piperidin-1-yl]methyl}phenyl)imidazo[1,2-a]pyridine] | 1 to 10 | 1 to 10 | < 10 |
